From publication PMC8213385, “Development of a Fluorescent Assay to Search New Drugs Using Stable tdTomato-Leishmania, and the Selection of Galangin as a Candidate With Anti-Leishmanial Activity” (Frontiers in Cellular and Infection Microbiology, 2021)
Read-outs that look alike come from different tables or passages of the source.

Assays:
[1] = test system: promastigotes of L. amaz/tc3; assay: Fluorescence assay against promastigotes of L. amaz/tc3 (tdTomato); format: cell-based, Leishmania (Leishmania) amazonensis; details: 48 h; for IC50: Leishmania; for Inhibition of parasite growth (promastigotes): doses ≤ 40 µM, fluorescence assay
Protocol: Then, we evaluated the efficacy of MI, a reference drug for leishmaniasis by the fluorescence method (L. amaz/tc3) and by the conventional method based in counting the parasite at the optic microscope (L. amaz/wt). Mid-log promastigotes of L. amaz/tc3 and L. amaz/wt were harvest and seeded (1 x 10^6/0.1 ml) with different concentrations of MI (40 to 0.6 µg/ml) in a 96-well plate at 23°C. Promastigotes cultured only in medium were the controls. Parasite viability was determined by measuring the fluorescence of L. amaz/tc3 in a plate reader (Tecan, Männedorf, Switzerland) and by counting the mobile promastigotes in a Neubauer chamber at the optic microscope (40x) (Leitz Wetzlar, Germany) at 48 h of incubation with MI. Viability was calculated with the formula: ViabilityL.amaz/tc3 =FLt/FLc×100 where, FLt is the fluorescence of treated culture, and FLc is the fluorescence of control; ViabilityL.amaz/wt=NPt/NPc×100 where, NPt is the number of promastigotes in the treated culture, and NPc is the number of promastigotes in control culture. Then, the 50% inhibitory concentration (IC50) of MI was estimated.
After fluorescence assay validation as it is described above, the method was used to evaluate in vitro the flavonoids anti-leishmanial activity. Mid-log promastigotes of L. amaz/tc3 were harvest and seeded with different concentrations of GAL (1,200 to 18.75 µM), MO, FI and RU (40 to 1.25 µM), and EGCG (300 to 18.75 µM). Positive control were promastigotes treated with PE (4 to 0.25 µM), the negative control were promastigotes cultured with medium only, and the blank was the culture medium. The parasites were incubated at 23°C for 48 h. The anti-leishmanial activity was determined by measuring the parasite fluorescence in a plate reader (Tecan, Männedorf, Switzerland). The viability was estimated as was described above for MI (fluorescent assay). The IC50 was calculated for each compound.

[2] = test system: intracellular amastigotes of L. (L.) amazonensis; assay: Microscopic assay, counting intracellular amastigotes in Raw 264.7 macrophages at the optic microscope; format: cell-based, Leishmania (Leishmania) amazonensis; details: for SI (Selectivity index): CC50 for macrophages/IC50 for Leishmania (intracellular amastigotes; Ma from fluorescence IC50); for IC50: Leishmania amazonensis, RAW264.7, Raw 264.7 macrophages, 48 h, optic microscope, read-out: Microscopic IC50 μM (SE), intracellular amastigotes
Protocol: (§1) Furthermore, the efficacy of MI was also determined against intracellular amastigotes of L. amaz/tc3 and L. amaz/wt. Raw 264.7 macrophages were plated in 96-well black plate (5 x 10^4 cells/well) and in eight well Lab-Tek tissue culture slides (6.6 x 10^4 cells/ml) (Nunc, USA). The cells were infected with promastigotes in stationary phase of L. amaz/tc3 and L. amaz/wt (1:20 ratio) at 33°C, 5% CO2. After incubation, the infected macrophages were washed to remove non-internalized parasites with PBS plus P-S. New RPMI-1640 medium with different concentrations of MI (20 to 0.62 µg/ml) was added to each well and incubated at 33°C, 5% CO2 during 48 h. The anti-leishmanial activity of MI was determined by measuring the fluorescence of intracellular amastigotes of L. amaz/tc3 in a plate reader (Tecan, Männedorf, Switzerland). The viability was calculated as mentioned above, and the IC50 was also estimated. Simultaneously, the leishmanicidal activity of MI against L. amaz/wt was determined by the microscopy test. In this case, the infected macrophages were stained with Diff Quik (Biopur S.R.L., Rosario, Argentina) and the number of intracellular amastigotes was determined in 200-500 macrophages in treated and control cultures per slide under the immersion lens microscope (100x) (Leitz Wetzlar, Germany). The infection index (II) and the % infectivity (I) were calculated by the following formulas: II = IM × A, where IM= infected macrophages (%), A= number of amastigotes per infected macrophages; and I(%)=IIT/IIc×100, where IIT= infection index in treated cultures, IIC= infection index in control cultures ([Ayres et al., 2008]). The IC50 of MI was calculated.
Then, to estimate the IC50 values of GAL, FI and MO; and to confirm the IC50 of RU, the activity was evaluated quantifying the intracellular amastigotes at the optic microscope. We followed the same methodology described for MI (microscopic assay) in “In Vitro, Fluorescent Assay Validation” section and the range of concentrations were for GAL (30 to 7.5 µM), FI (60 to 15 µM), RU and MO (200 to 50 µM), EGCG (142 a 17.7 µM).

[3] = Cytotoxicity in macrophage cell line by the MTT method (colorimetric); format: cell-based; details: mouse
Protocol: The cytotoxicity against a cell line of macrophages (Raw 264.7) of GAL, MO, FI, RU, EGCG, PE, MI and MA was determined by the MTT method. Cells (3.3 x 10^5/ml) cells were treated with different concentrations of each compound during 48 h at 37°C, 5% CO2. The controls were incubated with RPMI-1640 medium. Briefly, 50 µl of MTT (2 mg/mL) was added to each well and, after 4 h of incubation at 37°C, 5% CO2, the reaction was stopped dissolving the formazan crystals with 100 µl/well of dimethyl sulfoxide. The relative amount of formazan produced by viable macrophages was determined using a spectrophotometer at 595 nm. The percentage of viable cells was calculated according to the formula (OD treated culture−OD blank)/(OD control−OD blank) ×100 as was described previously ([Adinehbeigi et al., 2017]). The cytotoxicity concentration 50% (CC50) was calculated for each compound.

[4] = test system: promastigotes of L. amaz/tc3; assay: Transmission electron microscopy of treated promastigotes; format: cell-based, Leishmania (Leishmania) amazonensis; details: exposed to the IC50, 48 h
Protocol: Ultrastructural alterations in Leishmania induced by flavonoids with anti-leishmanial activity were analyzed by transmission electron microscopy (TEM). […] The control was a culture of L. amaz/tc3 incubated in complete RPMI-1640 medium. After 48 h of incubation, samples of L. amaz/tc3 promastigotes from each culture were fixed in modified Karnovsky’s solution (formaldehyde [2.66%], glutaraldehyde [1.66%]) and PBS 0.1M (pH 7,4), and incubated overnight at 4°C. The fixed samples were post-fixed with a 1/1 solution of PBS/2% osmium tetroxide (OsO4), overnight. Then the material was dehydrated and included in Spurr (Pelco, USA). Ultrathin sections were cut with an ultramicrotome (MT1, Sorvall, USA), mounted on copper grids, and contrasted with uranyl acetate (PELCO, USA) and lead citrate.

[5] = test system: intracellular amastigotes of L. amaz/tc3; assay: Fluorescence assay in the macrophage-amastigote model (Raw 264.7 infected with L. amaz/tc3); format: cell-based, Leishmania (Leishmania) amazonensis
Protocol: as §1
The flavonoids anti-leishmanial activity was also evaluated against intracellular amastigotes. Macrophages (Raw 264.7) were plated in 96-well black plate (5 x 10^4 cell/well) and infected with promastigotes in stationary phase of L. amaz/tc3 (1:20 ratio) at 33°C, 5% CO2. After incubation, the infected macrophages were washed to remove non-internalized parasites with PBS plus P-S. New RPMI-1640 medium with different concentrations of GAL (30 to 3.75 µM), MO (300 to 37.5 µM), FI (65 to 8.12 µM), RU (300 to 37.5 µM) and EGCG (30 to 7.5 µM) was added to each well and incubated at 33°C, 5% CO2 for 48 h. Infected cells treated with Ma (136.6 to 34.1 µM) were the positive controls, and cells incubated only with RPMI-1640 were the negative control. The infected macrophages were incubated during 48 h at 33°C, 5% CO2. After treatment, the fluorescence of intracellular amastigotes of L. amaz/tc3 was measured in a plate reader (Tecan, Männedorf, Switzerland). The viability was determined as was described for MI (fluorescent assay). The selectivity index (SI) (CC50 for macrophages/IC50 for Leishmania) was calculated.

[6] = test system: amastigotes of L. (L.) amazonensis; set-up: method as in Escobar et al., 2002; Morais-Teixeira et al., 2011; details: published data ref Escobar et al., 2002; Morais-Teixeira et al., 2011; cited from earlier work
[7] = test system: promastigotes of L. (L.) amazonensis; set-up: method as in Escobar et al., 2002; Morais-Teixeira et al., 2011; details: published data ref Escobar et al., 2002; Morais-Teixeira et al., 2011; cited from earlier work
[8] = test system: L. amaz/tc3; assay: Efficacy of Ma in BALB/c mice infected with L. amaz/tc3; format: in vivo
Protocol: Female BALB/c mice were infected in their hind right footpad with the stationary phase of promastigotes (5 x 10^6 parasites/0.05 ml) of L. amaz/tc3. Once a week the footpad swelling was measured with the digital caliper. Mice (n = 5) were treated with Ma in PBS (120 mg Sb/kg/day) starting at week 9 post-infection; the antimonial was administered by intraperitoneal injection (ip) once a day for 21 days. Control group (n = 5) received only PBS (ip). Within a week of finishing the Ma treatment, the parasite load was quantified by three methods, fluorescence (FL), optic microscope (OM) and limiting dilution assay (LD) in treated and control group. The FL method was carried out as follows, the hind right footpad was excised and weighed; then the tissue was homogenized using a glass grinder with 5 ml of complete RPMI-1640 medium and the intracellular amastigotes of L. amaz/tc3 were released. A sample (0.1 ml) of the homogenate was centrifuged to replace the medium for PBS, then it was plated in duplicates in a 96-well black culture plate with clear bottom (Nunc, USA) and the fluorescence was measured in a plate reader (Tecan, Männedorf, Switzerland). Besides, a calibration curve was used to extrapolate the sample fluorescence to the number of amastigotes. For that, a pool of amastigotes from control samples was used; amastigotes (1 x 10^6 to 1.5 x 10^4) were plated in duplicates in a 96-well black culture plate with clear bottom, and the fluorescence was measured in a plate reader (Tecan, Männedorf, Switzerland). The number of amastigotes was adjusted to the weight of the sample.
Another sample of the tissue homogenate was used to quantify the parasite loads by direct counting in a Neubauer chamber under an optical microscope (40X) (Leitz Wetzlar, Germany), and the concentration of parasites (amastigotes/ml) of each homogenate was determined ([Hill et al., 1983]). The total number of parasites was adjusted to the weight of each tissue sample.
Finally, a sample of the tissue homogenate was also used to quantify the parasite loads by the LD assay ([Lima et al., 1997]). After serial dilutions in 96-well plates, the samples were incubated at 23°C for 14 days and the number of viable promastigotes was determined from the highest dilution at which the parasite could grow.

[9] = read-out: IC50 against promastigotes of L. amaz/tc3
[10] = Raw 264.7 macrophage cell line, Raw 264.7, MTT, 48 h, read-out: Colorimetric CC50 μM (SE)
[11] = 120 mg Sb/kg/day ip, 21 days, week 13, footpad

O=C(O[C@@H]1Cc2c(O)cc(O)cc2O[C@@H]1c1cc(O)c(O)c(O)c1)c1cc(O)c(O)c(O)c1 [EGCG, (-)-epigallocatechin gallate, reference compound]
IC50 [1, 9]: 120 ± 17.6 µM
SI (Selectivity index) [2]: 1.5
IC50 [2]: 130 µM
CC50 at 48 h [3, 10]: 194 µM
Ultrastructural alterations in promastigotes (TEM) [4]: intense cytoplasmic vacuolization

O=c1c(O)c(-c2ccc(O)c(O)c2)oc2cc(O)ccc12 [FI, fisetin]
Inhibition of parasite growth (promastigotes) [1]: no inhibition
Fluorescence Inhibition (%) of amastigotes ([5]; 15 µM, 48 h): 31%
inhibition at 15 µM ([5]; Leishmania, RAW264.7, 48 h, read-out: Fluorescence Inhibition (%) of amastigotes, 15 µM, 48 h): 29 to 31%
SI (Selectivity index) [2]: < 1
IC50 [2]: > 60 µM
CC50 at 48 h [3, 10]: 52.6 µM

CCCCCCCCCCCCCCCCOP(=O)([O-])OCC[N+](C)(C)C [MI, Miltefosine, reference compound]
IC50 ([1]; read-out: IC50 against promastigotes): 5.25 ± 0.05 µg/mL
IC50 ([5]; Leishmania, RAW264.7, 48 h, read-out: IC50 against intracellular amastigotes): 1.65 ± 0.75 µg/mL
Effective dose for amastigotes [6]: 1.31 µg/mL
Effective dose for promastigotes [7]: 7.54 µg/mL

O=c1c(O)c(-c2ccc(O)cc2O)oc2cc(O)cc(O)c12 [MO, morin]
Inhibition of parasite growth (promastigotes) [1]: no inhibition
inhibition at 37.5 µM ([5]; Leishmania, RAW264.7, 48 h, read-out: Fluorescence Inhibition (%) of amastigotes, 37.5 µM, 48 h): 13.5%
SI (Selectivity index) [2]: > 1.8
IC50 [2]: 122 µM
CC50 at 48 h [3, 10]: > 230 µM

N=C(N)c1ccc(OCCCCCOc2ccc(C(=N)N)cc2)cc1 [PE, Pentamidine isethionate, reference compound]
IC50 [1, 9]: 0.67 ± 0.18 µM

C[C@@H]1O[C@@H](OC[C@H]2O[C@@H](Oc3c(-c4ccc(O)c(O)c4)oc4cc(O)cc(O)c4c3=O)[C@H](O)[C@@H](O)[C@@H]2O)[C@H](O)[C@H](O)[C@H]1O [RU, rutin]
Inhibition of parasite growth (promastigotes) [1]: no inhibition
IC50 ([5]; Leishmania, RAW264.7, 48 h, read-out: Fluorescence IC50 μM (SE), intracellular amastigotes): 171 µM
SI (Selectivity index) [2]: > 1.8
IC50 [2]: 133 µM
CC50 at 48 h [3]: > 240 µM

Meglumine antimoniate [Ma]
IC50 ([5]; Raw 264.7 macrophages, 48 h, 33°C, read-out: Fluorescence IC50 μM (SE), intracellular amastigotes): 80.3 µM
Inhibition of parasite burden, fluorescence method (FL) [8, 11]: 55%
Inhibition of parasite burden, limiting dilution (LD) assay [8, 11]: 54%
Inhibition of parasite burden, optic microscope (OM) [8, 11]: 75%
Footpad swelling versus control group ([8]; 120 mg Sb/kg/day ip, week 13, p < 0.05): significant difference
Percentage of inhibition in the parasite load, fluorescence and LD assay ([8]; end of treatment, both methods): 54-55%
